Molecular target: T1, human LPA1 (Homo sapiens, UniProt Q92633)
T1 construct: expressed in transfected cells; host or cells: CHO-K1
Test: In vitro LPA1 functional antagonist assay (calcium mobilization, FLIPR)
Type: cell-based
Conditions: CHO-K1 cells overexpressing human LPA1; Oleoyl LPA challenge; calcium mobilization on FLIPR Tetra
Experimental: In Vitro LPA1 Functional Antagonist Assay
CHO-K1 cells overexpressing human LPA1 were seeded in a total volume of 20 μL into black-walled, clear-bottom, Poly-D-lysine coated 384-well microplates and incubated at 37° C. for the appropriate time prior to testing. Assays were performed in 1× Dye Loading Buffer consisting of 1× Dye, 1× Additive A and 2.5 mM Probenecid in HBSS/20 mM Hepes. Probenicid was prepared fresh. Cells were loaded with dye prior to testing. Media was aspirated from cells and replaced with […] Dye Loading Buffer. Cells were incubated for 30-60 minutes at 37° C. After dye loading, cells were removed from the incubator and 10 μL 3× test compound was added. Cells were incubated for 30 minutes at room temperature in the dark to equilibrate plate temperature followed by Oleoyl LPA challenge at the 0.018 M. Compound antagonist activity was measured on a FLIPR Tetra (MDS). Calcium mobilization was monitored for 2 minutes and 10 μL Oleoyl LPA in HBSS/20 mM Hepes was added to the cells 5 seconds into the assay. Compound activity was analyzed using CBIS data analysis suite (ChemInnovation, CA). Percentage inhibition is calculated using the following formula:
% Inhibition=100%×(1−(mean RFU of test sample−mean RFU of vehicle control)/(mean RFU of LPA control−mean RFU of vehicle control)).

T1 sequence (Q92633 whole entry): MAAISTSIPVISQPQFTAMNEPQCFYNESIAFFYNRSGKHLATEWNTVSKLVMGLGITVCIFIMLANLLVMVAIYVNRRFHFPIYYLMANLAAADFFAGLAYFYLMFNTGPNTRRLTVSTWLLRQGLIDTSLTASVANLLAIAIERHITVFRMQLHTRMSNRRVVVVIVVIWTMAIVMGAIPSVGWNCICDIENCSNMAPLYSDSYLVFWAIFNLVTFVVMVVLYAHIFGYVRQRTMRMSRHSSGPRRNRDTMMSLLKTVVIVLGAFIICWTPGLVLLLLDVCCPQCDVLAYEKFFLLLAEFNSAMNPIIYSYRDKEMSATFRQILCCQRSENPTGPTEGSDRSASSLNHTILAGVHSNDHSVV

Row | IC50 [nM] | Structure (SMILES)
1 | 7.66 | CCOC(=O)c1cn(C[C@H](OC2CCCC2)[C@H](O)c2cc(OC)c(C)c(OC)c2)cc1CC(=O)O [Compound 143]
2 | 2.04 | COc1cc([C@@H](O)[C@H](Cn2cc3cc(Cl)cc(C(=O)O)c3n2)OC2CCCC2)cc(OC)c1C [Compound 144]
3 | 72.6 | COc1cc([C@@H](O)[C@H](Cn2cc3cccc(C(=O)O)c3n2)OC(C)C)cc(OC)c1C [Compound 145]

Source: patent US20240018102A1, “COMPOUNDS AND COMPOSITIONS FOR TREATING CONDITIONS ASSOCIATED WITH LPA RECEPTOR ACTIVITY” (Lhotse Bio, Inc., priority 2020, published 2024)
